# Measurements published in patent US4866065A, “Imidazothienopyrimidines useful in psychopharmaceutical preparations” (A/S Ferrosan, priority 1987, dated 1989).
# Test system: benzodiazepine receptors
# Test: in vivo displacement of 3H-flunitrazepam specific binding to brain benzodiazepine receptors in mice
# Design: species or system mice (female, NMR)
# Conditions: intraperitoneal, test substance 15 min before 3H-FNM i.v., sacrificed 20 min after 3H-FNM, forebrain
# Source text: The pharmaceutical properties of the compounds of the invention can be illustrated by determining their capability for displacing radioactive labelled flunitrazepam from benzodiazepine receptors.
# The displacement activity of the compounds of the invention may be found by determining the ED50 value. The ED50 value represents the dose (mg/kg) of a test substance which causes the specific binding of flunitrazepam to benzodiazepine receptors in a living brain to be reduced to 50% of the oontrol value.
# Such an in vivo test is carried out as follows:
# Principle. Twenty minutes after a dose of ^3 H-flunitrazepam (^3 H-FNM) (200 μCi/kg, i.v.) the amount of specific ^3 H-FNM binding to brain benzodiazepine receptors has reached its maximal value.
# Test procedure. Suspensions of test substances (2 mg/ml) are prepared in 5% Duphasol-X (TM Duphar, castor oil-ethylene oxide derivative for emulsifying and solubilizing Oil and other water-insoluble substances) by sonification for 10 min using a Branson B15 microtip ultrasonifier (setting 7). Groups of three mice (female, NMR, 18-22 grams) are injected with the test substance at 100 mg/kg intraperitoneally. Fifteen minutes after test substance administration the mice are challenged with 4 μCi intravenously of ^3 H-FNM (70-90 Ci/mole) in 200 μl physiological saline. Twenty minutes after ^3 H-FNM administration mice are sacrificed by decapitation, the forebrains rapidly excised (within 30 sec) and homogenized in 12 ml of icecold 25 mM KH2 PO4, pH 7.1, using an Ultra-Turrax homogenizer fitted with an N 10 shaft. […] The amounts of radioactivity on the filters are determined by conventional scintillation counting. […]
# Results. The ED50 value is determined from dose response curves. If only one dose of test substance is administered the ED50 value is calculated as follows, provided that the inhibition of specific binding is within the range of 25-75%: [formula] where Co is specific binding in controls and Cx is specific binding in mice treated with test substance.
row,Compound,ED50 (dose reducing specific binding of flunitrazepam to benzodiazepine receptors in living brain to 50% of control) [mg/kg]
1,"Cc1noc(-c2ncn3c4ccsc4c(=O)n(C)c23)n1 [Compound 10, 4,5-dihydro-4-methyl-3-(3-methyl-1,2,4-oxadiazol-5-yl)-5-oxo-imidazo[1,5-a]thieno[2,3-e]pyrimidine]",1.8
2,"Cn1c(=O)c2sccc2n2cnc(-c3noc(C4CC4)n3)c12 [Compound 3, 3-(5-cyclopropyl-1,2,4-oxadiazol-3-yl)-4,5-dihydro-4-methyl-5-oxo-imidazo[1,5-a]thieno[2,3-e]pyrimidine]",0.6
3,"Cn1c(=O)c2sccc2n2cnc(-c3nc(C4CC4)no3)c12 [Compound 8, 3-(3-cyclopropyl-1,2,4-oxadiazol-5-yl)-4,5-dihydro-4-methyl-5-oxo-imidazo[1,5-a]thieno[2,3-e]pyrimidine]",0.9
